The values that follow come from PMC3586143 (Drugs in R&D, 2012).

Read-outs that look alike come from different tables or passages of the source.

Usually AUC stands for the area under the concentration-time curve, a measure of exposure. For orientation: Cmax means the highest concentration seen after dosing. By Tmax is commonly meant the time at which the peak concentration occurs. By half-life is commonly meant how long it takes for the measured level to halve.

For series [1] the following is noted: in vivo; for tmax, median (range): 300 mg.
Another series in a line: clinical. The following applies: male, human, in vivo, po, 200 mg/day; for AUC: AUC24, gmean; for Cmax: gmean.
For series [2], the system named is vascular endothelial growth factor and epidermal growth factor. The following applies: cellular assays for VEGF and EGF; cited from earlier work.
For series [3], the system named is healthy male subjects. In words: Study A: safety and tolerability assessments. The class given is in vivo.
Series [4] relates to healthy male subjects. In words: Study B: safety and tolerability assessments. In kind it is in vivo.
For series [5] the following is noted: for half-life: t½, gmean (CV%).
For series [6] the following is noted: for increase in AUC504: vandetanib + itraconazole compared with vandetanib alone.

Consider `COc1cc2c(Nc3ccc(Br)cc3F)ncnc2cc1OCC1CCNCC1` [N-desmethylvandetanib], for which, in series [1], the “AUC504 of metabolite as % of AUC504 of vandetanib” value is “≈ 7%” and the “tmax, median (range)” value is recorded as 5 h.
Turning to `CC(O)C(C)n1ncn(-c2ccc(N3CCN(c4ccc(OCC5COC(Cn6cncn6)(c6ccc(Cl)cc6Cl)O5)cc4)CC3)cc2)c1=O` (stereo not shown) [hydroxy-itraconazole], in “clinical”, the AUC came to 7690 ng·h/mL and the Cmax is 413 ng/mL.
In the series “clinical”, `CCC(C)n1ncn(-c2ccc(N3CCN(c4ccc(OCC5COC(Cn6cncn6)(c6ccc(Cl)cc6Cl)O5)cc4)CC3)cc2)c1=O` (stereo not shown) [itraconazole, reference compound] returned an AUC of 5040 ng·h/mL and a Cmax of 424 ng/mL.
On to `COc1cc2c(Nc3ccc(Br)cc3F)ncnc2cc1OCC1CC[N+](C)([O-])CC1` (stereo not shown) [vandetanib N-oxide], for which, in series [1], the “increase in AUCct” value amounted to 126%; the “time post-dose by which plasma concentrations were nonquantifiable” value lay in the range of 96 to 240 h; the “tmax, median (range)” value is on record as 7 h. Also, the “activity relative to vandetanib (fold less active)” value in series [2] is recorded as > 50 fold.
Turning to `COc1cc2c(Nc3ccc(Br)cc3F)ncnc2cc1OCC1CCN(C)CC1` [vandetanib], the tolerability entry with healthy male subjects [3] (single dose 300 mg) and with healthy male subjects [4] (single dose 300 mg) was “well tolerated” in each case. Besides, the “change in mean corrected QT (QTC) interval” value with healthy male subjects [3] (vandetanib alone or in combination with rifampicin) is listed as “no clinically important changes”. In the series on healthy male subjects [3] (vandetanib in combination with rifampicin), the “subjects with increase from baseline in QTC interval of >60 ms” value was “One subject”. In addition, the “subjects reporting adverse events” value in the series on healthy male subjects [3] (vandetanib in the presence of rifampicin) and in the series with healthy male subjects [4] (vandetanib in the absence of itraconazole) was 31.3% in each case. Further, the “subjects with increase from baseline in QTC of >60 ms” value in the series on healthy male subjects [4] is “Three subjects”. The “increase in mean QTC interval after the dose” value with healthy male subjects [4] (at each timepoint) was ≤ 20 ms. The “median time to Cmax” value in series [5] (both studies (A and B), vandetanib 300 mg single dose) fell in the range of 5 to 6 h. Further, the Tmax in series [5] (male, human, plasma, oral, 300 mg) stood at 6 h; in series [6] (male, human, in vivo, 300 mg) it was 5 h. The half-life was 218 h in series [5] (male, human, plasma, oral, 300 mg, after vandetanib 300 mg alone) and 116 h in series [5] (male, human, plasma, oral, after vandetanib 300 mg + rifampicin). Moreover, the “increase in AUC504” value in series [6] is recorded as 9%; in series [6] (listed as Vandetanib), “about 9%”.
